Source: US11168074B2, “Potassium channel inhibitors” (ACESION PHARMA ApS, priority 2017, dated 2021)
pIC50: −log10 of the molar value.

Molecular target: T1, human SK3 channel (hKCa2.3) (Homo sapiens, UniProt Q9UGI6)
T1 construct: expressed in transfected cells
Assay: Automated patch clamping (QPatch 16 HT whole cell patch-clamp)
Type: cell-based
Conditions: HEK-293 cells stably expressing hKCa2.3; free calcium 400 nM; effects normalized to N-methyl bicuculline; read-out: IC50 in the Automated patch clamping assay (concentration needed to inhibit half of the SK channel activity)
Protocol: Automated whole cell patch-clamp recordings were performed using a QPatch 16 HT system and single-hole Qplates (Biolin Scientific, Sophion, Denmark) on HEK-293 cells stably expressing the human SK3 channel (hKCa2.3). Cells were cultured and prepared for experiments using normal cell culturing procedures. A total of 4-5 million cells were used per experiment. The Qpatch automatically generates giga sealing, whole-cell formation, compound application and recording of current. hKCa2.3 currents were recorded in symmetrical K^+ solutions, with an intracellular solution consisting of in mM: KCl 108; KOH/EGTA (ethylene glycol-bis(2-aminoethylether)-N,N,N′,N′-tetraacetic acid) 31.25/10; CaCl2 8.1; MgCl2 1.2; HEPES (2-[4-(2-hydroxyethyl)piperazin-1-yl]ethanesulfonic acid) 10; KOH 15, pH adjusted to pH=7.2 with HCl. The free calcium concentration was calculated to 400 nM. The extracellular solution consisted of in mM: KCl 150; CaCl2 0.1; MgCl2 3; HEPES 10; Glucose 10, pH=7.4 with KOH. The cells were held at 0 mV and hKCa2.3 currents were elicited by a linear voltage ramp from −80 mV to +80 mV (200 ms in duration) applied every 5th second. The compound application protocol consisted of 12 recording periods lasting from 50-200 s: 1) Baseline recordings in extracellular solution; 2) Application of the positive control N-methyl bicuculline (100 μM), which is characterized by full efficacy, fast on- and off-rate; 3-4) Wash-out; 5-9) Increasing concentrations of test compound to establish an IC50 value; 10-11) Wash-out; 12) positive control with compound NS8593 (N-[(1R)-1,2,3,4-tetrahydro-1-naphthalenyl]-1H-benzimidazol-2-amine) (1 μM). Data were sampled at 10 kHz, 4th order Bessel filter, cut-off frequency 3 kHz. Currents were compensated for run-down. Potency was quantified as the concentration needed to inhibit half of the SK channel activity and reported as an IC50 value. All effects of compounds of the present invention as tested were normalized to the observed inhibitory effect of N-methyl bicuculline.

| pIC50 | SMILES |
| --- | --- |
| > 5.00 | COCC(=O)NC[C@H](Nc1nc2ccccc2[nH]1)c1cccc(C(F)(F)F)c1 [Example 12, N-[(2R)-2-[(1H-1,3-benzodiazol-2-yl)amino]-2-[3-(trifluoromethyl)phenyl]ethyl]-2-methoxyacetamide] |
| > 5.00 | N#Cc1cccc(C(=O)NCC(Nc2nc3ccccc3[nH]2)c2cccc(C(F)(F)F)c2)c1 (stereo not drawn) [Example 7, N-{2-[(1H-1,3-benzodiazol-2-yl)amino]-2-[3-(trifluoromethyl)phenyl]ethyl}-3-cyanobenzamide] |
| > 5.00 | CCC(=O)NCC(Nc1nc2ccccc2[nH]1)c1cccc(C(F)(F)F)c1 (stereo not drawn) [Example 10, N-{2-[(1H-1,3-benzodiazol-2-yl)amino]-2-[3-(trifluoromethyl)phenyl]ethyl}propanamide] |
| > 5.00 | CCC(=O)NCC(Nc1nc2ccccc2[nH]1)c1cccc(C(F)(F)F)c1 (single isomer, unassigned) [Example 10a, N-{2-[(1H-1,3-benzodiazol-2-yl)amino]-2-[3-(trifluoromethyl)phenyl]ethyl}propanamide] |
| > 5.00 | O=C(NCC(Nc1nc2ccccc2[nH]1)c1cccc(C(F)(F)F)c1)c1cccc(F)c1 (stereo not drawn) [Example 9, N-{2-[(1H-1,3-benzodiazol-2-yl)amino]-2-[3-(trifluoromethyl)phenyl]ethyl}-3-fluorobenzamide] |
| > 5.00 | O=C(NCC(Nc1nc2ccccc2[nH]1)c1cccc(C(F)(F)F)c1)c1ccon1 (stereo not drawn) [Example 1, N-{2-[(1H-1,3-benzodiazol-2-yl)amino]-2-[3-(trifluoromethyl)phenyl]ethyl}-1,2-oxazole-3-carboxamide] |
| > 5.00 | O=C(NCC(Nc1nc2ccccc2[nH]1)c1cccc(C(F)(F)F)c1)C1CCC1 (stereo not drawn) [Example 2, N-{2-[(1H-1,3-benzodiazol-2-yl)amino]-2-[3-(trifluoromethyl)phenyl]ethyl}cyclobutanecarboxamide] |
| > 5.00 | O=C(NCC(Nc1nc2ccccc2[nH]1)c1cccc(C(F)(F)F)c1)c1ccccn1 (stereo not drawn) [Example 6, N-{2-[(1H-1,3-benzodiazol-2-yl)amino]-2-[3-(trifluoromethyl)phenyl]ethyl}pyridine-2-carboxamide; trifluoroacetic acid] |
| > 5.00 | O=C(NCC(Nc1nc2ccccc2[nH]1)c1cccc(C(F)(F)F)c1)C1CC1 (stereo not drawn) [Example 3, N-{2-[(1H-1,3-benzodiazol-2-yl)amino]-2-[3-(trifluoromethyl)phenyl]ethyl}cyclopropanecarboxamide] |
| > 5.00 | O=C(CO)NC[C@H](Nc1nc2ccccc2[nH]1)c1cccc(C(F)(F)F)c1 [Example 13, N-[(2R)-2-[(1H-1,3-benzodiazol-2-yl)amino]-2-[3-(trifluoromethyl)phenyl]ethyl]-2-hydroxyacetamide] |
| > 5.00 | O=C(NCC(Nc1nc2ccccc2[nH]1)c1cccc(C(F)(F)F)c1)c1ncon1 (stereo not drawn) [Example 4, N-{2-[(1H-1,3-benzodiazol-2-yl)amino]-2-[3-(trifluoromethyl)phenyl]ethyl}-1,2,4-oxadiazole-3-carboxamide; trifluoroacetic acid] |
| > 5.00 | CC(=O)NCCC(Nc1nc2ccccc2[nH]1)c1cccc(C(F)(F)F)c1 (stereo not drawn) [Example 14, N-{3-[(1H-1,3-benzodiazol-2-yl)amino]-3-[3-(trifluoromethyl)phenyl]propyl}acetamide] |
| > 5.00 | O=C(NCC(Nc1nc2ccccc2[nH]1)c1cccc(C(F)(F)F)c1)c1ccncn1 (stereo not drawn) [Example 5, N-{2-[(1H-1,3-benzodiazol-2-yl)amino]-2-[3-(trifluoromethyl)phenyl]ethyl}pyrimidine-4-carboxamide; trifluoroacetic acid] |

Second part, the compound before the results:

| SMILES | pIC50 |
| --- | --- |
| CC(=O)N(C)CCC(Nc1nc2ccccc2[nH]1)c1cccc(C(F)(F)F)c1 (stereo not drawn) [Example 18, N-{3-[(1H-1,3-benzodiazol-2-yl)amino]-3-[3-(trifluoromethyl)phenyl]propyl}-N-methylacetamide] | > 5.00 |
| CC(=O)NCCC(Nc1nc2ccccc2[nH]1)c1cccc(OC(F)(F)F)c1 (stereo not drawn) [Example 22, N-{3-[(1H-1,3-benzodiazol-2-yl)amino]-3-[3-(trifluoromethoxy)phenyl]propyl}acetamide] | > 5.00 |
| O=C(NCC(Nc1nc2ccccc2[nH]1)c1cccc(C(F)(F)F)c1)C1CCOCC1 (stereo not drawn) [Example 8, N-{2-[(1H-1,3-benzodiazol-2-yl)amino]-2-[3-(trifluoromethyl)phenyl]ethyl}oxane-4-carboxamide] | > 5.00 |
| O=C1CCCN1CC(Nc1nc2ccccc2[nH]1)c1cccc(C(F)(F)F)c1 (stereo not drawn) [Example 11, 1-{2-[(1H-1,3-benzodiazol-2-yl)amino]-2-[3-(trifluoromethyl)phenyl]ethyl}pyrrolidin-2-one] | > 5.00 |
| CC(=O)NCCC(Nc1nc2ccccc2[nH]1)c1cccc(OC(F)(F)F)c1 (single isomer, unassigned; (-)) [Example 22a, (−)-N-{3-[(1H-1,3-benzodiazol-2-yl)amino]-3-[3-(trifluoromethoxy)phenyl]propyl}acetamide] | > 5.00 |
| CC(=O)NCCCC(Nc1nc2ccccc2[nH]1)c1cccc(C(F)(F)F)c1 (stereo not drawn) [Example 19, N-{4-[(1H-1,3-benzodiazol-2-yl)amino]-4-[3-(trifluoromethyl)phenyl]butyl}acetamide] | > 5.00 |
| CC(=O)N(C)CCC(Nc1nc2ccccc2[nH]1)c1cccc(C(F)(F)F)c1 (single isomer, unassigned; (-)) [Example 18a, (−)-N-{3-[(1H-1,3-benzodiazol-2-yl)amino]-3-[3-(trifluoromethyl)phenyl]propyl}-N-methylacetamide] | > 5.00 |
| O=C(NCCC(Nc1nc2c(CO)cccc2[nH]1)c1cccc(C(F)(F)F)c1)c1ccon1 (stereo not drawn) [Example 15, N-(3-{[4-(hydroxymethyl)-1H-1,3-benzodiazol-2-yl]amino}-3-[3-(trifluoromethyl)phenyl]propyl)-1,2-oxazole-3-carboxamide] | > 5.00 |
| CC(=O)NCCC(Nc1nc2ccccc2[nH]1)c1cccc(C(F)(F)F)c1 (single isomer, unassigned; (-)) [Example 14a, (−)-N-{3-[(1H-1,3-benzodiazol-2-yl)amino]-3-[3-(trifluoromethyl)phenyl]propyl}acetamide] | > 5.00 |
| CC(=O)NCCC(C)(Nc1nc2ccccc2[nH]1)c1cccc(C(F)(F)F)c1 (stereo not drawn) [Example 21, N-{3-[(1H-1,3-benzodiazol-2-yl)amino]-3-[3-(trifluoromethyl)phenyl]butyl}acetamide] | > 5.00 |
| CC(=O)NCCCC(Nc1nc2cc(F)ccc2[nH]1)c1cccc(C(F)(F)F)c1 (stereo not drawn) [Example 20, N-{4-[(5-fluoro-1H-1,3-benzodiazol-2-yl)amino]-4-[3-(trifluoromethyl)phenyl]butyl}acetamide] | > 5.00 |
| O=C(NCCC(Nc1nc2ccccc2[nH]1)c1cccc(C(F)(F)F)c1)C(F)(F)F (stereo not drawn) [Example 16, N-{3-[(1H-1,3-benzodiazol-2-yl)amino]-3-[3-(trifluoromethyl)phenyl]propyl}-2,2,2-trifluoroacetamide; formic acid] | > 5.00 |
| CC(=O)NCCCC(Nc1nc2ccccc2[nH]1)c1cccc(C(F)(F)F)c1 (single isomer, unassigned; (-)) [Example 19a, (−)-N-{4-[(1H-1,3-benzodiazol-2-yl)amino]-4-[3-(trifluoromethyl)phenyl]butyl}acetamide] | > 5.00 |
| CC(=O)NC(C)CC(Nc1nc2ccccc2[nH]1)c1cccc(C(F)(F)F)c1 (stereo not drawn) [Example 17, N-{4-[(1H-1,3-benzodiazol-2-yl)amino]-4-[3-(trifluoromethyl)phenyl]butan-2-yl}acetamide; trifluoroacetic acid] | > 5.00 |
